Source: PubChem BioAssay (NCI)
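In this assay, cells in 96-well plates receive the compound at five concentrations for 48 hours. Endpoints are linearly interpolated between the surrounding concentrations. TGI marks complete inhibition of growth.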

Assays:
Assay in all cases: growth of human tumour cells (NCI), 48 h
SNB-19 CNS = test system: SNB-19 CNS
SK-MEL-28 melanoma = test system: SK-MEL-28 melanoma
LOX IMVI melanoma = test system: LOX IMVI melanoma
NCI-H226 lung = test system: NCI-H226 lung
SN12C renal = test system: SN12C renal
IGROV1 ovarian = test system: IGROV1 ovarian
MCF7 breast = test system: MCF7 breast
CAKI-1 renal = test system: CAKI-1 renal
T-47D breast = test system: T-47D breast
OVCAR-5 ovarian = test system: OVCAR-5 ovarian
A549 NSCLC = test system: A549 NSCLC
HL-60(TB) leukemia = test system: HL-60(TB) leukemia
HOP-62 NSCLC = test system: HOP-62 NSCLC
NCI-H522 lung = test system: NCI-H522 lung
UACC-62 melanoma = test system: UACC-62 melanoma
SR leukemia = test system: SR leukemia
RXF 393 renal = test system: RXF 393 renal
DU-145 prostate = test system: DU-145 prostate
SF-295 CNS = test system: SF-295 CNS
HT29 colon = test system: HT29 colon
M14 melanoma = test system: M14 melanoma
MOLT-4 leukemia = test system: MOLT-4 leukemia
MDA-MB-231 breast = test system: MDA-MB-231 breast
HS 578T breast = test system: HS 578T breast
HCT-15 colon = test system: HCT-15 colon
ACHN renal = test system: ACHN renal
NCI-H23 lung = test system: NCI-H23 lung
OVCAR-4 ovarian = test system: OVCAR-4 ovarian
COLO 205 colon = test system: COLO 205 colon
OVCAR-8 ovarian = test system: OVCAR-8 ovarian
MDA-N = test system: MDA-N
EKVX NSCLC = test system: EKVX NSCLC
RPMI-8226 leukemia = test system: RPMI-8226 leukemia
SK-MEL-2 melanoma = test system: SK-MEL-2 melanoma
PC-3 prostate = test system: PC-3 prostate
MALME-3M melanoma = test system: MALME-3M melanoma
U251 CNS = test system: U251 CNS
CCRF-CEM leukemia = test system: CCRF-CEM leukemia
TK-10 renal = test system: TK-10 renal
HCT-116 colon = test system: HCT-116 colon
NCI/ADR-RES ovarian = test system: NCI/ADR-RES ovarian
K-562 leukemia = test system: K-562 leukemia
786-0 renal = test system: 786-0 renal
OVCAR-3 ovarian = test system: OVCAR-3 ovarian
KM12 colon = test system: KM12 colon
SW-620 colon = test system: SW-620 colon
NCI-H460 lung = test system: NCI-H460 lung
SF-268 CNS = test system: SF-268 CNS
SK-OV-3 ovarian = test system: SK-OV-3 ovarian
MDA-MB-435 = test system: MDA-MB-435
SK-MEL-5 melanoma = test system: SK-MEL-5 melanoma
UACC-257 melanoma = test system: UACC-257 melanoma
BT-549 breast = test system: BT-549 breast
A498 renal = test system: A498 renal
SF-539 CNS = test system: SF-539 CNS
HCC-2998 colon = test system: HCC-2998 colon
SNB-75 CNS = test system: SNB-75 CNS
HOP-92 NSCLC = test system: HOP-92 NSCLC

Measured: TGI

CC(c1ccccc1)n1cncc1C(=O)NN1CCN(C)CC1 (configuration not stated)
not listed: HCC-2998 colon | SNB-75 CNS | HOP-92 NSCLC
> 10 µM: all other assays above

Cn1c2ccc(Cl)cc2c2ccc3c(c21)C(=O)C=CC3=O
not listed: RXF 393 renal
> 10 µM: all other assays above
